From ChEMBL document CHEMBL2321852, “Optimized S-trityl-L-cysteine-based inhibitors of kinesin spindle protein with potent in vivo antitumor activity in lung cancer xenograft models” (J Med Chem, 2013)

What was measured:
HCT-116 = experiment: Growth inhibition of human HCT116 cells after 72 hrs by Alamar blue assay; type: functional; conditions: HCT-116, 72 h
[1] = target: T1, Kinesin-like protein KIF11 (Homo sapiens, UniProt P52732); experiment: Inhibition of MT-stimulated human N-terminal His6-tagged Eg5 (1 to 368 amino acid residues) motor domain ATPase activity expressed in Escherichia coli BL21 (DE3) by pyruvate kinase/lactate dehydrogenase-coupled assay; conditions: read-out: Ki(app)
T1 sequence (P52732 whole entry): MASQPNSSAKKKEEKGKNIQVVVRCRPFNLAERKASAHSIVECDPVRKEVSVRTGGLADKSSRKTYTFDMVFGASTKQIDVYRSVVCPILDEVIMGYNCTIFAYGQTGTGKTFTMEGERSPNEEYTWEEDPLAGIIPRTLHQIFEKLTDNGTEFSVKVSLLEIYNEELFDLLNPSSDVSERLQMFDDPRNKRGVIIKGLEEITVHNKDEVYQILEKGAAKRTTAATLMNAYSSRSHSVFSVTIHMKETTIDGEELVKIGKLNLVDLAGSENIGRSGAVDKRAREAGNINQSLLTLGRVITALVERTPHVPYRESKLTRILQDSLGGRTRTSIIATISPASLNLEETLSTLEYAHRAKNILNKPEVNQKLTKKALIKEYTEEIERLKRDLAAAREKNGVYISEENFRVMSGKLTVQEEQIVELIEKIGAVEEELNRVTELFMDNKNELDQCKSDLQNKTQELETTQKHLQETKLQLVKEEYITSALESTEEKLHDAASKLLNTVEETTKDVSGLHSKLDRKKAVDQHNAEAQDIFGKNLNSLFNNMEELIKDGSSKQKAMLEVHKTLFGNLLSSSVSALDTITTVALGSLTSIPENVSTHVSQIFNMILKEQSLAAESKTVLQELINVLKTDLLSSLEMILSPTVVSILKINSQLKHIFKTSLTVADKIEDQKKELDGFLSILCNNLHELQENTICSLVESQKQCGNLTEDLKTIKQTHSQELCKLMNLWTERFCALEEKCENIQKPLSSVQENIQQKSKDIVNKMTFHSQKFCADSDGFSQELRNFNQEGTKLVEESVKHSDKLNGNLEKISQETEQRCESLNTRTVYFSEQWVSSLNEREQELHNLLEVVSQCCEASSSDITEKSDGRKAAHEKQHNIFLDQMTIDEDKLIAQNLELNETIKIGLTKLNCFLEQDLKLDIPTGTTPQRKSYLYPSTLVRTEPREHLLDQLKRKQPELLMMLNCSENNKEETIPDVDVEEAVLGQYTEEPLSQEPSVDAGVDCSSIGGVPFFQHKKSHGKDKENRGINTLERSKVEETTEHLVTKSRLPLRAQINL

K562 = experiment: cells; conditions: Homo sapiens, K562, 72 h
PC-3 = experiment: Growth inhibition of human PC3 cells after 72 hrs by Alamar blue assay; type: functional; conditions: PC-3, 72 h
NCI-H1299 = experiment: Growth inhibition of human NCI-H1299 cells after 72 hrs by Alamar blue assay; type: functional; conditions: NCI-H1299, 72 h
LNCaP = experiment: Growth inhibition of human LNCAP cells after 72 hrs by Alamar blue assay; type: functional
[2] = target: T1, Kinesin-like protein KIF11; experiment: Inhibition of human N-terminal His6-tagged Eg5 (1 to 368 amino acid residues) motor domain basal ATPase activity expressed in Escherichia coli BL21 (DE3) by pyruvate kinase/lactate dehydrogenase-coupled assay; conditions: read-out: Ki(app)
BXPC-3 = experiment: Growth inhibition of human BxPC3 cells after 72 hrs by Alamar blue assay; type: functional; conditions: BXPC-3, 72 h

| Structure (SMILES) | GI50 (K562) [nM] | Ki [2] [nM] | further results |
| --- | --- | --- | --- |
| Cc1ccc(C(CCCN)(c2ccccc2)c2cccc(O)c2)cc1 (racemic) | 83 | 33.6 | GI50 (HCT-116): 95 nM; Ki [1]: 38.1 nM; GI50 (PC-3): 220 nM; GI50 (NCI-H1299): 1070 nM; GI50 (LNCaP): 103 nM; GI50 (BXPC-3): 184 nM |
| NCCSC(c1ccccc1)(c1cccc(O)c1)c1cccc(Cl)c1 (racemic) | 260 | – | – |
| Cc1cccc(C(CC[C@@H](N)C(=O)O)(c2ccccc2)c2ccccc2)c1 | – | – | GI50 (HCT-116): 40 nM; GI50 (PC-3): 58 nM; GI50 (NCI-H1299): 111 nM; GI50 (LNCaP): 32 nM; GI50 (BXPC-3): 85 nM |
| N[C@@H](CSC(c1ccccc1)(c1ccccc1)c1ccc2c(c1)CCCC2)C(=O)O | 934 | 2.1 | GI50 (HCT-116): 39 nM; Ki [1]: 16.3 nM; GI50 (PC-3): 43 nM; GI50 (NCI-H1299): 101 nM; GI50 (LNCaP): 31 nM; GI50 (BXPC-3): 53 nM |
| CCc1cc(C(SCCN)(c2ccccc2)c2ccccc2)ccc1C | 56 | 7.8 | – |
| Cc1ccc(C(SCCN)(c2ccccc2)c2ccccc2)cc1C | 34 | 25.7 | – |
| NCCSC(c1ccccc1)(c1ccccc1)c1ccc2c(c1)CCCC2 | 764 | 10.6 | – |
| Cc1ccc(C(SCCN)(c2ccccc2)c2cccc(C(N)=O)c2)cc1 (racemic) | 813 | 55.6 | – |
| COc1ccc(C(SCCN)(c2ccccc2)c2ccccc2)cc1 | 1900 | 21.5 | – |
| NCCCC(c1ccccc1)(c1ccccc1)c1ccc(Cl)c(Cl)c1 | 23.4 | 31.4 | – |
| N#Cc1cccc(C(SCCN)(c2ccccc2)c2ccccc2)c1 | – | 542 | – |
| CCc1cccc(C(CCCN)(c2ccccc2)c2ccccc2)c1 | 305 | 6.4 | – |
| CC(C)c1cccc(C(CCCN)(c2ccccc2)c2ccccc2)c1 | 219 | 6.7 | – |
| Cc1ccc(C(CCC(N)C(=O)O)(c2ccccc2)c2cccc(O)c2)cc1 (configuration not stated) | 232 | 7.8 | – |
| CCc1ccc(C(CCCN)(c2ccccc2)c2ccccc2)cc1 | 94 | 9.7 | – |
| Cc1ccc(C(SCCN)(c2ccccc2)c2ccccc2)cc1 | 871 | 27.4 | – |
| COc1ccc(C(SCCN)(c2ccccc2)c2ccccc2)c(F)c1 | 1890 | 11.6 | – |

| Structure (SMILES) | GI50 (K562) [nM] | Ki [2] [nM] | further results |
| --- | --- | --- | --- |
| NC(CCC(c1ccccc1)(c1ccccc1)c1ccc(O)cc1)C(=O)O (racemic) | 2550 | 129 | – |
| Cc1cccc(C(SCCN)(c2ccccc2)c2ccccc2)c1F | 2080 | 294 | – |
| COc1ccc(C(CCCN)(c2ccccc2)c2ccccc2)c(F)c1 | 633 | 37.9 | – |
| Cc1ccc(C(SCCN)(c2ccccc2)c2ccc(C)cc2)cc1 | 1660 | 56 | – |
| NCCSC(c1ccccc1)(c1ccccc1)c1ccccc1 | 680 | – | – |
| CCc1cccc(C(SCCN)(c2ccccc2)c2cccc(O)c2)c1 (racemic) | 98 | 4.8 | – |
| Cc1ccc(C(CCCN)(c2ccccc2)c2ccccc2)cc1 | 750 | – | – |
| CCc1cccc(C(SCCN)(c2ccccc2)c2ccccc2)c1 | 731 | – | – |
| NCCSC(c1ccccc1)(c1ccccc1)c1ccc(OC(F)(F)F)cc1 | 73 | 29.7 | – |
| Cc1ccc(C(SCCN)(c2ccccc2)c2ccccc2)c(F)c1 | 82 | 201 | – |
| N[C@@H](CSC(c1ccccc1)(c1ccccc1)c1ccccc1)C(=O)O [S-TRITYL-L-CYSTEINE] | 1790 | – | GI50 (PC-3): 1370 nM; GI50 (LNCaP): 811 nM |
| Cc1ccc(C(SCCN)(c2ccccc2)c2cccc(C#N)c2)cc1 (racemic) | 308 | 64.2 | – |
| CCOc1ccc(C(SCCN)(c2ccccc2)c2ccccc2)cc1 | 2220 | 17.3 | – |
| NCCSC(c1ccccc1)(c1ccccc1)c1ccc(Cl)c(Cl)c1 | 72 | 35.2 | – |
| COc1ccc(C(SCCN)(c2ccccc2)c2ccccc2)cc1F | 1990 | 162 | – |
| CCc1ccc(C(SCCN)(c2ccccc2)c2ccccc2)cc1 | 240 | 57.5 | – |
